From patent US11629201B2, “PSMA-binding agents and uses thereof” (ITM Isotope Technologies Munich SE, priority 2017, dated 2023)

Test system: PC-3 PIP/flu tumor-bearing mice
Assay: Biodistribution studies in PC-3 PIP/flu tumor-bearing mice
Settings: for Tumor-to-blood / Tumor-to-kidney / Tumor-to-liver: PC-3 PIP tumor

O=C(O)CCC(NC(=O)NC(CCCCNC(=O)C(Cc1ccc2ccccc2c1)NC(=O)C1CCC(n2cc(CC(NC(=O)CN3CCN(CC(=O)O)CCN(CC(=O)O)CCN(CC(=O)O)CC3)C(=O)NC(CCCCNC(=O)CCCc3ccc(I)cc3)C(=O)O)nn2)CC1)C(=O)O)C(=O)O (stereo not shown) [^177Lu-PSMA-ALB-01, metal not drawn] showed a Tumor-to-blood (1 h p.i.) of 0.30 ± 0.06, a Tumor-to-kidney (1 h p.i.) of 0.46 ± 0.04 and a Tumor-to-liver (1 h p.i.) of 1.56 ± 0.30. For the same molecule, the Blood (4 h p.i.) was 25.6 ± 1.53 % IA/g, the Bone (4 h p.i.) was 3.01 ± 0.09 % IA/g and the Heart (4 h p.i.) was 8.71 ± 0.50 % IA/g. For the same molecule, the Intestines (4 h p.i.) was 4.17 ± 0.70 % IA/g, the Kidneys (4 h p.i.) was 24.6 ± 0.38 % IA/g and the Liver (4 h p.i.) was 5.92 ± 0.07 % IA/g. For the same molecule, the Lung (4 h p.i.) was 14.1 ± 0.99 % IA/g, the Muscle (4 h p.i.) was 2.06 ± 0.80 % IA/g and the “PC-3 PIP Tumor” value (4 h p.i.) was 20.4 ± 0.39 % IA/g. For the same molecule, the “PC-3 flu Tumor” value (4 h p.i.) was 5.03 ± 1.61 % IA/g, the Salivary glands (4 h p.i.) was 5.20 ± 0.73 % IA/g and the Spleen (4 h p.i.) was 5.34 ± 0.90 % IA/g. For the same molecule, the Stomach (4 h p.i.) was 3.30 ± 0.05 % IA/g, the Tumor-to-blood (4 h p.i.) was 0.80 ± 0.03 and the Tumor-to-kidney (4 h p.i.) was 0.83 ± 0.03. It also gave a Tumor-to-liver (4 h p.i.) of 3.45 ± 0.03, a Blood (8 h p.i.) of 21.0 ± 2.86 % IA/g and a Bone (8 h p.i.) of 2.54 ± 0.26 % IA/g. It also gave a Heart (8 h p.i.) of 7.16 ± 1.23 % IA/g, an Intestines (8 h p.i.) of 2.44 ± 0.17 % IA/g and a Kidneys (8 h p.i.) of 22.6 ± 2.38 % IA/g. For the same molecule, the Liver (8 h p.i.) was 5.31 ± 1.23 % IA/g, the Lung (8 h p.i.) was 11.6 ± 0.83 % IA/g and the Muscle (8 h p.i.) was 1.63 ± 0.27 % IA/g. For the same molecule, the “PC-3 PIP Tumor” value (8 h p.i.) was 25.5 ± 2.02 % IA/g, the “PC-3 flu Tumor” value (8 h p.i.) was 4.01 ± 0.79 % IA/g and the Salivary glands (8 h p.i.) was 4.45 ± 0.56 % IA/g. It also gave a Spleen (8 h p.i.) of 4.05 ± 0.69 % IA/g, a Stomach (8 h p.i.) of 2.45 ± 0.43 % IA/g and a Tumor-to-blood (8 h p.i.) of 1.22 ± 0.08. The Tumor-to-kidney (8 h p.i.) was 1.13 ± 0.07, the Tumor-to-liver (8 h p.i.) was 4.97 ± 1.21 and the Blood (24 h p.i.) was 14.2 ± 1.40 % IA/g. The Bone (24 h p.i.) was 1.58 ± 0.06 % IA/g, the Heart (24 h p.i.) was 5.93 ± 0.65 % IA/g and the Intestines (24 h p.i.) was 2.12 ± 0.20 % IA/g. The Kidneys (24 h p.i.) was 22.7 ± 2.18 % IA/g, the Liver (24 h p.i.) was 2.92 ± 0.67 % IA/g and the Lung (24 h p.i.) was 8.62 ± 1.47 % IA/g. For the same molecule, the Muscle (24 h p.i.) was 1.34 ± 0.14 % IA/g, the “PC-3 PIP Tumor” value (24 h p.i.) was 38.2 ± 2.59 % IA/g and the “PC-3 flu Tumor” value (24 h p.i.) was 3.95 ± 0.82 % IA/g. For the same molecule, the Salivary glands (24 h p.i.) was 3.38 ± 0.32 % IA/g, the Spleen (24 h p.i.) was 3.60 ± 0.43 % IA/g and the Stomach (24 h p.i.) was 1.39 ± 0.07 % IA/g. It also gave a Tumor-to-blood (24 h p.i.) of 2.71 ± 0.39, a Tumor-to-kidney (24 h p.i.) of 1.69 ± 0.07 and a Tumor-to-liver (24 h p.i.) of 13.5 ± 2.79. It also gave a Blood (48 h p.i.) of 12.0 ± 2.18 % IA/g, a Bone (48 h p.i.) of 1.64 ± 0.34 % IA/g and a Heart (48 h p.i.) of 4.42 ± 0.81 % IA/g. For the same molecule, the Intestines (48 h p.i.) was 1.84 ± 0.54 % IA/g, the Kidneys (48 h p.i.) was 25.2 ± 4.15 % IA/g and the Liver (48 h p.i.) was 3.03 ± 0.63 % IA/g. For the same molecule, the Lung (48 h p.i.) was 7.67 ± 0.83 % IA/g, the Muscle (48 h p.i.) was 1.35 ± 0.46 % IA/g and the “PC-3 PIP Tumor” value (48 h p.i.) was 65.6 ± 1.84 % IA/g. For the same molecule, the “PC-3 flu Tumor” value (48 h p.i.) was 4.64 ± 1.84 % IA/g, the Salivary glands (48 h p.i.) was 3.96 ± 0.98 % IA/g and the Spleen (48 h p.i.) was 4.62 ± 1.12 % IA/g. It also gave a Stomach (48 h p.i.) of 1.49 ± 0.47 % IA/g, a Tumor-to-blood (48 h p.i.) of 5.54 ± 0.76 and a Tumor-to-kidney (48 h p.i.) of 2.64 ± 0.40. The Tumor-to-liver (48 h p.i.) was 22.2 ± 4.11, the Blood (96 h p.i.) was 6.68 ± 0.85 % IA/g and the Bone (96 h p.i.) was 1.07 ± 0.22 % IA/g. It also gave a Heart (96 h p.i.) of 2.70 ± 0.37 % IA/g, an Intestines (96 h p.i.) of 1.05 ± 0.17 % IA/g and a Kidneys (96 h p.i.) of 13.0 ± 1.30 % IA/g. For the same molecule, the Liver (96 h p.i.) was 1.88 ± 0.36 % IA/g, the Lung (96 h p.i.) was 5.07 ± 0.66 % IA/g and the Muscle (96 h p.i.) was 0.82 ± 0.12 % IA/g. For the same molecule, the “PC-3 PIP Tumor” value (96 h p.i.) was 62.3 ± 3.56 % IA/g, the “PC-3 flu Tumor” value (96 h p.i.) was 2.76 ± 0.23 % IA/g and the Salivary glands (96 h p.i.) was 2.22 ± 0.38 % IA/g. For the same molecule, the Spleen (96 h p.i.) was 3.12 ± .015 % IA/g, the Stomach (96 h p.i.) was 0.81 ± 0.04 % IA/g and the Tumor-to-blood (96 h p.i.) was 9.39 ± 0.65. It also gave a Tumor-to-kidney (96 h p.i.) of 4.80 ± 0.20, a Tumor-to-liver (96 h p.i.) of 33.7 ± 4.33 and a Blood (144 h p.i.) of 5.78 ± 0.90 % IA/g. For the same molecule, the Bone (144 h p.i.) was 0.99 ± 0.20 % IA/g, the Heart (144 h p.i.) was 2.23 ± 0.29 % IA/g and the Intestines (144 h p.i.) was 1.07 ± 0.13 % IA/g. It also gave a Kidneys (144 h p.i.) of 10.2 ± 3.41 % IA/g, a Liver (144 h p.i.) of 1.56 ± 0.16 % IA/g and a Lung (144 h p.i.) of 4.90 ± 0.58 % IA/g. For the same molecule, the Muscle (144 h p.i.) was 0.66 ± 0.15 % IA/g, the “PC-3 PIP Tumor” value (144 h p.i.) was 78.4 ± 8.57 % IA/g and the “PC-3 flu Tumor” value (144 h p.i.) was 2.82 ± 0.24 % IA/g. The Salivary glands (144 h p.i.) was 1.68 ± 0.53 % IA/g, the Spleen (144 h p.i.) was 4.32 ± 0.57 % IA/g and the Stomach (144 h p.i.) was 0.84 ± 0.13 % IA/g. It also gave a Tumor-to-blood (144 h p.i.) of 13.8 ± 2.38, a Tumor-to-kidney (144 h p.i.) of 8.05 ± 1.77 and a Tumor-to-liver (144 h p.i.) of 50.5 ± 6.28. For the same molecule, the Blood (192 h p.i.) was 5.21 ± 1.37 % IA/g, the Bone (192 h p.i.) was 0.86 ± 0.17 % IA/g and the Heart (192 h p.i.) was 2.12 ± 0.68 % IA/g. It also gave an Intestines (192 h p.i.) of 1.02 ± 0.25 % IA/g, a Kidneys (192 h p.i.) of 7.56 ± 1.44 % IA/g and a Liver (192 h p.i.) of 1.51 ± 0.37 % IA/g. The Lung (192 h p.i.) was 4.12 ± 0.96 % IA/g, the Muscle (192 h p.i.) was 0.64 ± 0.13 % IA/g and the “PC-3 PIP Tumor” value (192 h p.i.) was 75.6 ± 22.0 % IA/g. For the same molecule, the “PC-3 flu Tumor” value (192 h p.i.) was 2.73 ± 0.84 % IA/g, the Salivary glands (192 h p.i.) was 1.78 ± 0.34 % IA/g and the Spleen (192 h p.i.) was 4.09 ± 1.12 % IA/g. The Stomach (192 h p.i.) was 0.73 ± 0.12 % IA/g, the Tumor-to-blood (192 h p.i.) was 14.5 ± 1.84 and the Tumor-to-kidney (192 h p.i.) was 9.87 ± 1.05. The Tumor-to-liver (192 h p.i.) was 50.2 ± 7.38.
